Two compounds from patent US20230405063A1, “USE OF PROBIOTIC COMPONENT AND PHARMACEUTICAL COMPOSITION CONTAINING PROBIOTIC COMPONENT” (CHENGDU KUACHANGAOPU MEDICAL TECHNOLOGY CO., LTD., priority 2020, published 2023) can be followed below.

In assay [1] the test system is gastric tumor cells (BGC823). As to the kind of experiment: Tumor inhibition in BGC823 tumor-bearing nude mice (Example 5, Table 8). The assay is classed as in vivo. The settings on record: intratumoral injection once, 150 μl/mouse, 7th day. From the text:
The method for determining the effect of combined drug administration in animal experiments was Burgi method (Burgi Y. Pharmacology; Drug actions and reactions. Cancerres. 1978, 38(2), 284-285). The Burgi method was modified by Zhengjun JIN (Zhengjun JIN, Equal probability and curve and “Q50”, Journal of the Second Shanghai Medical College; 1981, 1, 75-86) with q calculated as: q=EA+B/(EA+EB−EA×EB). In the following examples of the present invention, the combinational pharmaceutical efficacies (drug efficacies) of drug A and drug B co-administration was determined by ratio q of actual pharmaceutical efficacy (drug efficacy)/theoretical pharmaceutical efficacy (drug efficacy) according to Zhengjun JIN method, as follows.
Nude mice were used as experimental subjects, and gastric tumor cells (BGC823) were used as modeling cells, 1×10^5 cells/mouse were injected into the right axilla subcutaneously for transplantation tumor modeling, and the average tumor volume of successfully modeled nude mice was 164.4 mm^3. The model animals were randomly divided into 14 groups, and the drugs according to the pharmacological constitutions in Table 8 were administered via intratumoral injection. Each group was dosed once with an injection volume of 150 μl/mouse; wherein the pharmaceutical compositions of groups 5, 11 were semi-fluid, the pharmaceutical compositions of other groups are liquid. On the 7th day after drug administration, the animals were euthanized, and after dissection, the tumor tissue was taken out to determine the tumor weight, and the tumor inhibition rate (r) was calculated relative to the negative control group. Further, the actual efficacy/expected efficacy ratio q of a drug could also be calculated according to the therapeutic effect (tumor inhibition rate).

In assay [2] the test system is human pancreatic cancer cells (PANC-1). As to the kind of experiment: Tumor inhibition in PANC-1 tumor-bearing nude mice, administration volume study (Example 4, Table 6). The class given is in vivo. Particulars: intratumoral once. As to the method: Nude mice were used as experimental subjects, and human pancreatic cancer cells (PANC-1) were used as modeling cells, 1×10^5 cells/mouse were injected into the right axilla subcutaneously for transplantation tumor modeling, and the average tumor volume of successfully modeled nude mice was 213.1 mm^3. The model animals were randomly divided into 16 groups, and the drugs were administered intratumorally according to the drug components and administration volumes in Table 6, and each group was administered once. The drugs in groups 1-12 were prepared according to the method of Example 1, wherein the inactivated probiotics were heat-inactivated Saccharomyces boulardii, the probiotic water-insoluble component particles were β-glucan particles, the probiotic water-soluble component was disrupted Saccharomyces boulardii supernatant component, and the mixture of the probiotic water-insoluble component particles and water-soluble component (abbreviated as probiotic component mixture) was disrupted Saccharomyces boulardii, preparation method used was the same as that of Example 3. On the 7th day after drug administration, the animals were euthanized, and the tumor tissues were taken out after dissection to determine the tumor weight, and the tumor inhibition rate (r) was calculated relative to the negative control group.

[3] abbreviates: injection volume 20 ul, administration volume/tumor volume 0.09, 7th day.
The mark [4] stands for this setting: injection volume 50 ul, administration volume/tumor volume 0.23, 7th day.
Setting [5] is: injection volume 100 ul, administration volume/tumor volume 0.47, 7th day.

As for `O=c1[nH]cc(F)c(=O)[nH]1` [1% 5-fluorouracil, 5-fluorouracil], in assay [1], the “Tumor inhibition rate r” value worked out at 41.4% and the “Tumor weight (x ± s)” value amounted to 0.132 ± 0.069 g.

For `CCO` [75% ethanol, ethanol], the “Tumor inhibition rate r” value in assay [2] (setting [3]) was determined as 6.2%; in assay [2] (setting [4]), 20.3%; in assay [2] (setting [5]), 31.7%. For the same compound, the “Tumor weight (x ± s)” value in assay [2] (setting [3]) amounted to 0.257 ± 0.110 g; in assay [2] (setting [4]) it was 0.218 ± 0.115 g; in assay [2] (setting [5]), 0.187 ± 0.064 g.
